One may read the IC50 as the concentration at which inhibition is half-maximal.

SMILES strings stand for the structures.

For ten compounds, IC50 results are on record in patent US9611221B2, “Histone demethylase inhibitors” (CELGENE QUANTICEL RESEARCH, INC., priority 2012, dated 2017).

Holding throughout (format): biochemical
Test [1] concerns the target Jarid1B (Homo sapiens (Human), UniProt Q9UGL1). Briefly: Jarid1B in vitro enzyme inhibition assay (TR-FRET). The note with it: 0.8 nM Jarid1B, 300 nM H3K4me3-biotin peptide, 2 μM alpha-ketoglutaric acid. The source says: (§1) This assay determines the ability of a test compound to inhibit Jarid1A, Jarid1B, and JMJD2C demethylase activity. Baculovirus expressed Jarid1A (GenBank Accession #NM_001042603, AA1-1090) was purchased from BPS Bioscience (Cat#50110). Baculovirus expressed Jarid1B (GenBank Accession #NM_006618, AA 2-751) was purchased from BPS Bioscience (Cat #50121) or custom made by MolecularThroughput. Baculovirus expressed JMJD2C (GenBank Accession #BC143571, AA 2-372) was purchased from BPS Bioscience (Cat#50105).
(§2) The ability of test compounds to inhibit the activity of Jarid1B was determined in 384-well plate format under the following reaction conditions: 0.8 nM Jarid1B, 300 nM H3K4me3-biotin labeled peptide (Anaspec cat #64357), 2 μM alpha-ketoglutaric acid in assay buffer of 50 mM HEPES, pH7.3, 0.005% Brij35, 0.5 mM TCEP, 0.2 mg/ml BSA, 50 μM sodium L-ascorbate, and 2 μM ammonium iron(II) sulfate. Reaction product was determined quantitatively by TR-FRET after the addition of detection reagent Phycolink Streptavidin-allophycocyanin (Prozyme) and Europium-anti-mono- or di-methylated histone H3 lysine 4 (H3K4me1-2) antibody (PerkinElmer) in the presence of 5 mM EDTA in LANCE detection buffer (PerkinElmer) at a final concentration of 25 nM and 1 nM, respectively.
(§3) The reaction mixture was incubated at room temperature for 30 minutes, and terminated by the addition of 6 μl of 5 mM EDTA in LANCE detection buffer containing 50 nM Phycolink Streptavidin-allophycocyanin and 2 nM Europium-anti-H3K4me1-2 antibody. Plates were read by EnVisionMultilabel Reader in TR-FRET mode (excitation at 320 nm, emission at 615 nm and 665 nm) after 1 hour incubation at room temperature. A ratio was calculated (665/615) for each well and fitted to determine inhibition constant (IC50).
(In general: In TR-FRET formats the signal depends on donor and acceptor labels being close together.)

The target in test [2] is Jarid1A (Homo sapiens (Human), UniProt P29375). Description: Jarid1A in vitro enzyme inhibition assay (TR-FRET). To be noted: 1 nM Jarid1A, 300 nM H3K4me3-biotin peptide, 2 μM alpha-ketoglutaric acid.
Text: as §1
as §2, with “The enzymatic assay of Jarid1A activity is based upon Time Resolved-Fluorescence Resonance Energy Transfer (TR-FRET) detection. The” for “The”, “Jarid1A” for “Jarid1B”, “1” for “0.8”, “Jarid1A,” for “Jarid1B,”
as §3

The target of test [3] is JMJD2C (Homo sapiens (Human), UniProt Q9H3R0). Briefly: JMJD2C in vitro enzyme inhibition assay (TR-FRET). The note with it: 0.3 nM JMJD2C, 300 nM H3K9me3-biotin peptide, 2 μM alpha-ketoglutaric acid. The essentials:
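Baculovirus-expressed JMJD2C (AA 2-372), 0.3 nM, with 300 nM biotin-H3K9me3 peptide and 2 μM alpha-ketoglutarate in pH 7.3 HEPES buffer with ascorbate and Fe(II); 30 min at room temperature.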

Chain of JMJD2C (Q9H3R0 2-372): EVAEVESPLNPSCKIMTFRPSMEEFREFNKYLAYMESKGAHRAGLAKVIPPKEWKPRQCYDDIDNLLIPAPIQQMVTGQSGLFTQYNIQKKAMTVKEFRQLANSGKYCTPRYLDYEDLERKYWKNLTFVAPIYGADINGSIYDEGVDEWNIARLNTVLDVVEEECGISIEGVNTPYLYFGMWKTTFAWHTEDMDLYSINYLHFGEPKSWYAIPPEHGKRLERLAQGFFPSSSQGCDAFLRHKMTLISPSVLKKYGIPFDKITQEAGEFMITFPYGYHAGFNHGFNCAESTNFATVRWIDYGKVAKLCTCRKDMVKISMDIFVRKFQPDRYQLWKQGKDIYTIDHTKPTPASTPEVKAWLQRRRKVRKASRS
Chain of Jarid1B (Q9UGL1 2-751): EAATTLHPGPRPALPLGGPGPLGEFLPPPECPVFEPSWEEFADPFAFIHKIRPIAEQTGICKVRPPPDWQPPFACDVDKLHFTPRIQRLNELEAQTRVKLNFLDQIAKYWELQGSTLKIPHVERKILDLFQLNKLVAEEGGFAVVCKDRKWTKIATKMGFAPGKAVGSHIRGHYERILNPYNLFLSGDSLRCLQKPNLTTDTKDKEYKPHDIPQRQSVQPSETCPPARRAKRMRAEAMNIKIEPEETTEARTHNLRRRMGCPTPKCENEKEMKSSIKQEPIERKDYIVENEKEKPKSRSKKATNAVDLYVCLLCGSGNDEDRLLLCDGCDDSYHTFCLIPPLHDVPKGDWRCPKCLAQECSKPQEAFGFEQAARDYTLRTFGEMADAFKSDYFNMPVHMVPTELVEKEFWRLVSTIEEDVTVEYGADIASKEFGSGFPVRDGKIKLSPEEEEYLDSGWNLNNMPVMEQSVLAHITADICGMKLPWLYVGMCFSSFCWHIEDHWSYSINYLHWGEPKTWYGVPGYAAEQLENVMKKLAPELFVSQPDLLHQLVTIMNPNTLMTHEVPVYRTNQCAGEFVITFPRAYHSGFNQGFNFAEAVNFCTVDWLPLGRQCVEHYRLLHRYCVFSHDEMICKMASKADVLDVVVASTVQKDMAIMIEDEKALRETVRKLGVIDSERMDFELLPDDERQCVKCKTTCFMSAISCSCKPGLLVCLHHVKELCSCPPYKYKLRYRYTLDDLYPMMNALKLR
Chain of Jarid1A (P29375 1-1090): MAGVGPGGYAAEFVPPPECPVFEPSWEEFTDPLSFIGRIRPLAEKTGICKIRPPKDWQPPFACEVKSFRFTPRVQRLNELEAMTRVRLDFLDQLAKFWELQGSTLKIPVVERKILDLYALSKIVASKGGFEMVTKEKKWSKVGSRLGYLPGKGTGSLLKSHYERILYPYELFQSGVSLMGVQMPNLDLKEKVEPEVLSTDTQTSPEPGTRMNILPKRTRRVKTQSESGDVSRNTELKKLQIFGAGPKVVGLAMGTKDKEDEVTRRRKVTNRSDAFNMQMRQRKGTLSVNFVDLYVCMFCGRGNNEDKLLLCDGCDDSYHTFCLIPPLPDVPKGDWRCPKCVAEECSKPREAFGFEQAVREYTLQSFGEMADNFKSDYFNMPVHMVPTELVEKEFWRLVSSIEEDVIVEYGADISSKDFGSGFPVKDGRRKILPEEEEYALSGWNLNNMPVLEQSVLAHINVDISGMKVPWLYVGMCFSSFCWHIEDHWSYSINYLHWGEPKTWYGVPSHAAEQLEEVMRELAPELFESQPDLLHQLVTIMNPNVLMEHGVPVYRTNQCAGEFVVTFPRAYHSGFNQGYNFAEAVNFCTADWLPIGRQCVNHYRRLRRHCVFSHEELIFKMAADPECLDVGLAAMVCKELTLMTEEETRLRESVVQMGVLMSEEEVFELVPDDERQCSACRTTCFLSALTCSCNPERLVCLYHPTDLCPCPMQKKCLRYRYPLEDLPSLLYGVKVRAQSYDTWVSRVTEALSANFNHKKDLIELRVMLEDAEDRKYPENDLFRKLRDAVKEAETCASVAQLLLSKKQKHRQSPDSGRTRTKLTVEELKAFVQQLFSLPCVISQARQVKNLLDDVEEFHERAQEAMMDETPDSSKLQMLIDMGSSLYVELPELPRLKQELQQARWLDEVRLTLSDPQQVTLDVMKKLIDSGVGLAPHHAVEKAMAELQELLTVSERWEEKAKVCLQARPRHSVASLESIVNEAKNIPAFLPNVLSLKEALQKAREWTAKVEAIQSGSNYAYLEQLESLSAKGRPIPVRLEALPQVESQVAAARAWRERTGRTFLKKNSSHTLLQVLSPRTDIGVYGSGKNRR

On to `O=C(O)c1ccncc1NCC1Cc2ccccc2O1` (stereo not drawn) [Example 43, 3-[(2,3-dihydro-1-benzofuran-2-ylmethyl)amino]pyridine-4-carboxylic acid], for which the IC50 in test [1], in test [2] and in test [3] was at most 100 nM throughout.
As for `O=C(O)c1ccncc1NCC1COc2ccccc2O1` (stereo not drawn) [Example 44, 3-[(2,3-dihydro-1,4-benzodioxin-2-ylmethyl)amino]pyridine-4-carboxylic acid], the IC50 in test [1], in test [2] and in test [3] was at most 100 nM in each case.
In the case of `O=C(O)c1ccncc1NCC1CCCc2ccccc21` (stereo not drawn) [Example 46, 3-[(1,2,3,4-tetrahydronaphthalen-1-ylmethyl)amino]pyridine-4-carboxylic acid], the IC50 in test [1] is at most 100 nM; in test [2], at most 100 nM; in test [3] it was 100 to 1000 nM.
With `O=C(O)c1ccncc1NC[C@H]1CCCc2ccccc21` [Example 47, 3-{[(1S)-1,2,3,4-tetrahydronaphthalen-1-ylmethyl]amino}pyridine-4-carboxylic acid], the IC50 in test [1] was at most 100 nM; in test [2], at most 100 nM; in test [3], 100 to 1000 nM.
With `O=C(O)c1ccncc1NC[C@@H]1CCCc2ccccc21` [Example 48, 3-{[(1R)-1,2,3,4-tetrahydronaphthalen-1-ylmethyl]amino}pyridine-4-carboxylic acid], the IC50 in test [1], in test [2] and in test [3] was 100 to 1000 nM throughout.
Take `CC1(CNc2cnccc2C(=O)O)CCCc2ccccc21` (stereo not drawn) [Example 49, 3-{[(1-methyl-1,2,3,4-tetrahydronaphthalen-1-yl)methyl]amino}pyridine-4-carboxylic acid]: the IC50 in test [1], in test [2] and in test [3] was 100 to 1000 nM throughout.
`O=C(O)c1ccncc1NCC1CCCc2ccc(C3CC3)cc21` (stereo not drawn) [Example 53, 3-{[(7-cyclopropyl-1,2,3,4-tetrahydronaphthalen-1-yl)methyl]amino}pyridine-4-carboxylic acid]: the results for the IC50 in test [1], in test [2] and in test [3] were at most 100 nM, at most 100 nM and 100 to 1000 nM, respectively.
Consider `O=C(O)c1ccncc1NCC1CCOc2ccccc21` (stereo not drawn) [Example 58, 3-[(3,4-dihydro-2H-chromen-4-ylmethyl)amino]pyridine-4-carboxylic acid], for which the IC50 in test [1], in test [2] and in test [3] was at most 100 nM in each case.
Turning to `COc1ccc2c(c1)CCCC2CNc1cnccc1C(=O)O` (stereo not drawn) [Example 60, 3-{[(6-methoxy-1,2,3,4-tetrahydronaphthalen-1-yl)methyl]amino}pyridine-4-carboxylic acid], the figures for the IC50 in test [1], in test [2] and in test [3] were at most 100 nM, at most 100 nM and 100 to 1000 nM, respectively.
Turning to `Cc1ccc2c(c1)C(CNc1cnccc1C(=O)O)CCO2` (stereo not drawn) [Example 63, 3-{[(6-methyl-3,4-dihydro-2H-chromen-4-yl)methyl]amino}pyridine-4-carboxylic acid], the results for the IC50 in test [1], in test [2] and in test [3] were at most 100 nM, at most 100 nM and 100 to 1000 nM, respectively.
